Laboratory results published in publication PMC10547238, “Discovery of Potent Tetrazole Free Fatty Acid Receptor 2 Antagonists” (Journal of Medicinal Chemistry, 2023).
Where “and” joins values, the source holds several entries; their conditions need not be identical. Equal entries are not always repeated. Entries after “also recorded” stand apart in the source; their conditions may differ. Where two headings read alike, the source gives them in different places.

Assays:
Format in all cases: cell-based
[1] = target: T1, hFFA2 (Homo sapiens, UniProt O15552); test: cAMP assay, antagonist mode, Flp-In T-Rex 293 cells expressing hFFA2-eYFP; settings: for cAMP pIC50: hFFA2, antagonist mode, propionate at EC80, mean ± SEM, three or more experiments; for LLEcAMP: pIC50, cAMP – ClogP; for LLEcAMP-logD: pIC50, cAMP – logD7.4
T1 construct: expressed in transfected cells; host or cells: Flp-In T-Rex 293 cells, doxycycline-induced
T1 sequence (O15552 1-330): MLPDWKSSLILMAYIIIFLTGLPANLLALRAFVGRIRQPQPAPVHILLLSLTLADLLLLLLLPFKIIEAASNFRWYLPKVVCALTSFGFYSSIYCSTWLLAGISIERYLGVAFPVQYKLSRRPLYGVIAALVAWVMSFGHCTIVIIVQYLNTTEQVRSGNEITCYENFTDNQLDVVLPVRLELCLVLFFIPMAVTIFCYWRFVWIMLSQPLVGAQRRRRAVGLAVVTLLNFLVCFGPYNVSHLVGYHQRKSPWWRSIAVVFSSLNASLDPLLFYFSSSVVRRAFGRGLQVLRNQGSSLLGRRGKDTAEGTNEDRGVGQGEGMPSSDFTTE
Experimental: The activity of the compounds on FFA2 was evaluated in two different functional antagonist assays, both using propionate at EC80 as the agonist. The GTPγS assay reflects receptor activation by directly assessing G protein recruitment, whereas the cAMP assay, performed in whole cells, reflects a physiologically relevant downstream second messenger.
(§1) The hFFA2-eYFP and hFFA3-eYFP Flp-In T-Rex 293 cell lines were maintained in Dulbecco’s modified Eagle mMedium (DMEM, ThermoFisher #11965092) supplemented with 10% (v/v) fetal bovine serum, 100 U/mL penicillin, 100 μg/mL streptomycin, 5 μg/mL blasticidin S, and 200 μg/mL hygromycin B and incubated at 37 °C and 5% CO2 in a humidified incubator. Cells were passaged at 70–80% confluency.
To determine the compound’s ability to activate or inhibit the Gi-coupled FFA2 or FFA3, intracellular cAMP concentrations were determined using Flp-In T-Rex293 cells induced to express hFFA2-eYFP or hFFA3-eYFP. Experiments were carried out using a homogeneous time-resolved FRET-based detection kit (CisBio, PerkinElmer #62AM9PEC) according to the manufacturer’s protocol. The day before the assay, 10,000 cells/well were plated in DMEM supplemented with penicillin/streptomycin (100 units/mL and […], respectively), 5 μg/mL blasticidin S, and 200 μg/mL hygromycin B in 96-well cell culture microplates (Greiner Bio-One) and induced to express hFFA2-eYFP or hFFA3-YFP with 100 ng/mL doxycycline.
In antagonist mode, the cells were pre-incubated for 20 min with antagonist test compounds in HBSS together with 50 μM IBMX at rt. Then, the cells were further incubated for 25 min at rt in HBSS with the agonist compound, sodium propionate at EC80 (51.4 μM for FFA2, 13.2 μM for FFA3), and 3 μM forskolin. Reactions were stopped, and the output was measured with an Envision plate reader using a time-resolved fluorescence protocol, measuring the light emission at 620 and 665 nm. All analyses were performed in triplicate and analyzed using GraphPad Prism (version 9).

[2] = tested on: human neutrophils; test: Human neutrophil respiratory burst (luminol-amplified chemiluminescence); settings: for IC50: Neutrophil, read-out: pIC50 on C3-induced respiratory burst (converted)
Experimental: Human peripheral blood neutrophils were isolated from healthy volunteer buffy coats. Initially, the majority of red blood cells were sedimented using 2% w/v dextran sulfate in a 0.9% NaCl solution for 15 min. Next, the upper phase was centrifuged for 10 min at 200g and the supernatant was discarded. The pellet was resuspended in 0.9% NaCl solution, and neutrophils were separated from here using Lymphoprep (STEMCELL Technologies #07851) and density-gradient centrifugation (400g for 30 min). Then, the remaining red blood cells were subjected to hypotonic lysis by addition of 10 mL of sterile water followed by addition of 10 mL of 1.8% NaCl solution. Cell count and viability were determined using trypan blue and a Countess cell counter. Isolated neutrophils were characterized by May–Grunwald–Giemsa staining and immediately used for migration assays or assessment of respiratory burst.
Human neutrophil respiratory burst was assessed via luminol-amplified chemiluminescence. Freshly isolated human neutrophils were seeded in a concentration of 100,000 cells/well in a flat bottom, white 96-well plate (PerkinElmer cat #6005680). Cells were pre-incubated for 30 min with test compounds or vehicles (DMSO) in HBSS in a humidified atmosphere at 37 °C and 5% CO2. Next, luminol (Merck cat #521-31-3) was added to a final concentration of 10 μM. Lastly, the vehicle or the FFA2 agonist, sodium propionate, was added to a final concentration of 1 mM. Immediately thereafter, chemiluminescence was evaluated with an LUMIstar Omega microplate reader (PerkinElmer) where light emission was recorded for 1 s/well every 60 s for 1 h at 37 °C. Experiments were performed in triplicate and analyzed using GraphPad Prism (version 9). Fold response was calculated as the relative luminescence of samples compared to the vehicle control.

[3] = target: T2, hFFA3 (Homo sapiens, UniProt O14843); test: cAMP assay, Flp-In T-Rex 293 cells expressing hFFA3-eYFP; settings: at 10 μM
T2 construct: expressed in transfected cells; host or cells: Flp-In T-Rex 293 cells, doxycycline-induced
T2 sequence (O14843 1-346): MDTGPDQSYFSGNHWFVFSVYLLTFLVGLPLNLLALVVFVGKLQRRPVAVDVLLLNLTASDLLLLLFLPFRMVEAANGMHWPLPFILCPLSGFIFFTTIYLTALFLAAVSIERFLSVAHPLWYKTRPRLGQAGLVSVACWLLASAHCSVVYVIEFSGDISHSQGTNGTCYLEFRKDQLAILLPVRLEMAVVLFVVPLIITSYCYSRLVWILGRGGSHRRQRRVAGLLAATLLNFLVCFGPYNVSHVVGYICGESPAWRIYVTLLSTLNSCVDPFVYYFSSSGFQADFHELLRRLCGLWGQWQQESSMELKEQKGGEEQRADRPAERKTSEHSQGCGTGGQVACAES
Experimental: as §1
To determine the compound’s ability to activate or inhibit the Gi-coupled FFA2 or FFA3, intracellular cAMP concentrations were determined using Flp-In T-Rex293 cells induced to express hFFA2-eYFP or hFFA3-eYFP. […]
In agonist mode, the next day, the agonist was added in Hank’s balanced salt solution supplemented with 20 mM HEPES, 1 mM MgCl2, and 1 mM CaCl2 at pH 7.4 (HBSS) together with 50 μM 3-isobutyl-1-methylxanthine (IBMX) and 3 μM forskolin. After 25 min pf incubation at rt, agonist-induced intracellular cAMP production was assessed by stopping the reactions and measuring the output with an Envision plate reader using a time-resolved fluorescence protocol, measuring the light emission at 620 and 665 nm.
In antagonist mode, the cells were pre-incubated for 20 min with antagonist test compounds in HBSS together with 50 μM IBMX at rt. […] All analyses were performed in triplicate and analyzed using GraphPad Prism (version 9).

cAMP pIC50 [1]	LLEcAMP [1]	LLEcAMP-logD [1]	IC50 ([2]; propionate (C3) 1 mM) [nM]	IC50 ([1]; inhibition of propionate at FFA2, read-out: IC50 in cAMP assay)	activity on FFA3 [3]	IC50 ([1]; supplementary CSV, read-out: hFFA2 cAMP (pIC50) (converted)) [nM]	increase in potency ([1]; vs 16s, assay not specified) [fold]	SMILES	effect on respiratory burst induced by fMLP ([2]; fMLP-induced)	inhibition of propionate-induced respiratory burst ([2]; propionate (C3) 1 mM)
6.96 ± 0.07	2.75	5.57	46.8	–	–	–	–	O=C(O)C[C@H](Cc1ccc(C(F)(F)F)cc1)NC(=O)Cc1cccc(Cl)c1 [Compound 3, reference compound]	–	–
8.35 ± 0.15	5.87	7.5 and 7.51	5.75	3 to 4 nM and 4 nM	devoid of activity	–	–	COc1cccc(CC(=O)N[C@@H](Cc2ccc(C(F)(F)F)cc2)Cc2nnn[nH]2)c1 [Compound 16l, (S)-N-(1-(1H-Tetrazol-5-yl)-3-(4-(trifluoromethyl)phenyl)propan-2-yl)-2-(3-methoxyphenyl)acetamide]	did not exhibit any effect	completely inhibit; also recorded: full inhibition; also recorded: complete inhibition
7.83 ± 0.14	5.90	7.1 and 7.12	–	–	devoid of activity	10.2	9	O=C(Cc1cncc(Br)c1)N[C@@H](Cc1ccc(C(F)(F)F)cc1)Cc1nnn[nH]1 [Compound 16w, (S)-3-(2-((1-(1H-Tetrazol-5-yl)-3-(4-(trifluoromethyl)phenyl)propan-2-yl)amino)-2-oxoethyl)-5-bromopyridin-1-ium 2,2,2-trifluoroacetate]	–	–
